Laboratory results: US11813306B2, “Cyclic tetramer compounds as proprotein convertase subtilisin/kexin type 9 (PCSK9) inhibitors for the treatment of metabolic disorders” (NOVARTIS AG, priority 2018, dated 2023)

Biological target: human PCSK9 (Homo sapiens, UniProt Q8NBP7)
Experiment: PCSK9 ligand binding assay (TR-FRET): interference with binding of human PCSK9 to human LDLR
Conditions: for IC50: Human PCSK9 Alexa Fluor 647 / Human LDLR extracellular domain-Europium Kryptate; for Max % inhibition: efficacy (Amax), 100% = 1 uM unlabeled human PCSK9, 0% = DMSO
Outline: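 Read-out was TR-FRET ratio (665 nm over 615 nm, 330 nm excitation) between Alexa Fluor 647-human PCSK9 (16 nM added) and Europium Kryptate-human LDLR ectodomain (4 nM added). Compound and PCSK9 were mixed 30 min before LDLR, then incubated 2 h. Inhibition was normalised to DMSO and unlabelled-PCSK9 controls, giving IC50 and Amax.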

Sequence of human PCSK9 (Q8NBP7 153-692): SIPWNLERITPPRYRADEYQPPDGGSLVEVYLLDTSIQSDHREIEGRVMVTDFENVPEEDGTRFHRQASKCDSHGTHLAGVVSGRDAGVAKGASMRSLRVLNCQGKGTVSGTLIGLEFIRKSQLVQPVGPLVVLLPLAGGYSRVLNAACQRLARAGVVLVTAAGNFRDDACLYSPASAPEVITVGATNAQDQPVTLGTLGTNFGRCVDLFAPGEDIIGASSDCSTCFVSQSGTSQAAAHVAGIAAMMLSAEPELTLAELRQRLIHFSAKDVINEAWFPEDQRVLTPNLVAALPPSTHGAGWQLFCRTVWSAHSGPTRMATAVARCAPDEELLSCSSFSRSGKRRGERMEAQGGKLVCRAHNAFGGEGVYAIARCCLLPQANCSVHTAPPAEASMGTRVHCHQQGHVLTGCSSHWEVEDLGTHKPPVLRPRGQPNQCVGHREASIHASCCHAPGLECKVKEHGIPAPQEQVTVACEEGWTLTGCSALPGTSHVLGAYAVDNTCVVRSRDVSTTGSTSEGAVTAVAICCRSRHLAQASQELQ
Sequence of human PCSK9 (Q8NBP7 31-152 partner limits assumed): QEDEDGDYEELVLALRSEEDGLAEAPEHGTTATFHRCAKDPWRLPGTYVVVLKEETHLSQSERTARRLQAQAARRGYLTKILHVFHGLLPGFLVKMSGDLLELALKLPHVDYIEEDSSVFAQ

Compound	IC50 [nM]	Max % inhibition [%]
CCOCCOCCOCc1ncc(-c2ccc(Oc3cc(Cl)ccc3CN3C(=O)N[C@@H](Cc4ccccc4)C(=O)N4CCC[C@@](Cc5ccc(Cl)cc5)(C4)NC(=O)[C@H](CO)NC(=O)[C@@H]3C)cc2)n1C.Cl [Compound 104]	1.84	69.1
C[C@@H]1CC(=O)N(Cc2c(F)cc(Cl)cc2Oc2ccc(-c3cnc(CN(C)C)n3C)cc2)[C@@H](C)C(=O)N[C@@H](CO)C(=O)N(C)[C@@]2(Cc3ccc(Cl)cc3)CCCN(C2)C1=O [Compound 99, (3R, 7S, 10S, 13R)-6-(4-chloro-2-(4-(2-((dimethylamino)methyl)-1-methyl-1H-imidazol-5-yl)phenoxy)-6-fluorobenzyl)-13-(4-chlorobenzyl)-10-(hydroxymethyl)-3,7,12-trimethyl-1,6,9,12-tetraazabicyclo+11.3.1+heptadecane-2,5,8,11-tetraone]	2.86	116.6
C[C@H]1C(=O)N[C@@H](CO)C(=O)N[C@@]2(Cc3ccc(Cl)cc3)CCCN(C2)C(=O)[C@H](Cc2ccccc2)CC(=O)N1Cc1c(F)cc(F)cc1Oc1ccc(-c2cnc(CN3CCCC3)n2C)cc1 [Compound 75, (3R, 7S, 10S, 13R)-3-benzyl-13-(4-chlorobenzyl)-6-(2,4-difluoro-6-(4-(1-methyl-2-(pyrrolidin-1-ylmethyl)-1H-imidazol-5-yl)phenoxy)benzyl)-10-(hydroxymethyl)-7-methyl-1,6,9,12-tetraazabicyclo[11.3.1]heptadecane-2,5,8,11-tetraone]	0.758	113.3
CCC[C@@H]1CC(=O)N(Cc2c(F)cc(Cl)cc2Oc2ccc(-c3cnc(CN(C)C)n3C)cc2)[C@@H](C)C(=O)N[C@@H](CO)C(=O)N[C@@]2(Cc3ccc(Cl)cc3)CCCN(C2)C1=O [Compound 51, (3R, 7S, 10S, 13R)-6-(4-chloro-2-(4-(2-((dimethylamino)methyl)-1-methyl-1H-imidazol-5-yl)phenoxy)-6-fluorobenzyl)-13-(4-chlorobenzyl)-10-(hydroxymethyl)-7-methyl-3-propyl-1,6,9,12-tetraazabicyclo[11.3.1]heptadecane-2,5,8,11-tetraone]	1.12	101.3
CNCc1ncc(-c2ccc(Oc3cc(Cl)cc(F)c3CN3C(=O)C[C@@H](Cc4cccc(C)n4)C(=O)N4CCC[C@@](Cc5ccc(Cl)cc5)(C4)N(C)C(=O)[C@H](COC)NC(=O)[C@@H]3C)cc2)n1C [Compound 167, (3R,7S,10S,13R)-6-(4-chloro-2-fluoro-6-(4-(1-methyl-2-((methylamino)methyl)-1H-imidazol-5-yl)phenoxy)benzyl)-13-(4-chlorobenzyl)-10-(methoxymethyl)-7,12-dimethyl-3-((6-methylpyridin-2-yl)methyl)-1,6,9,12-tetraazabicyclo[11.3.1]heptadecane-2,5,8,11-tetraone]	0.9	108.6
CCN(Cc1ncc(-c2ccc(Oc3cc(Cl)cc(F)c3CN3C(=O)C[C@@H](CC(F)(F)F)C(=O)N4CCC[C@@](Cc5ccc(Cl)cc5)(C4)NC(=O)[C@H](CO)NC(=O)[C@@H]3C)cc2)n1C)C1(C)CC1 [Compound 152, (3S, 7S, 10S, 13R)-6-(4-chloro-2-(4-(2-((ethyl(1-methylcyclopropyl)amino)methyl)-1-methyl-1H-imidazol-5-yl)phenoxy)-6-fluorobenzyl)-13-(4-chlorobenzyl)-10-(hydroxymethyl)-7-methyl-3-(2,2,2-trifluoroethyl)-1,6,9,12-tetraazabicyclo[11.3.1]heptadecane-2,5,8,11-tetraone]	3.29	103.4
CCc1ccc(CN2C(=O)C[C@@H]([C@@H]3CCc4ccccc43)C(=O)N(C)C[C@@H](Cc3ccc(Cl)cc3)N(C)C(=O)[C@@H](CO)NC(=O)[C@@H]2C)c(Oc2ccc(-c3cnc(CN(C)C)n3C)cc2)c1 [Compound 121]	91.5	92.9
C[C@H]1C(=O)N[C@@H](CO)C(=O)N(C)[C@H](Cc2ccc(Cl)cc2)CNC(=O)[C@H](Cc2ccccc2)CC(=O)N1Cc1ccc(Cl)cc1Oc1ccc(-c2cnc(CN3CCCC3)n2C)cc1.Cl [Compound 89, (2S, 5S, 8R, 12R)-12-benzyl-1-(4-chloro-2-(4-(1-methyl-2-(pyrrolidin-1-ylmethyl)-1H-imidazol-5-yl)phenoxy)benzyl)-8-(4-chlorobenzyl)-5-(hydroxymethyl)-2,7-dimethyl-1,4,7,10-tetraazacyclotetradecane-3,6,11,14-tetraone]	1.51	104.5
COC[C@@H]1NC(=O)[C@H](C)N(Cc2c(F)cc(Cl)cc2Oc2ccc(-c3cnc(CN4CCC4)n3C)cc2)C(=O)C[C@@H](CC(F)(F)F)C(=O)N2CCC[C@@](Cc3ccc(Cl)cc3)(C2)N(C)C1=O [Compound 157, (3S, 7S, 10S, 13R)-6-(2-(4-(2-(azetidin-1-ylmethyl)-1-methyl-1H-imidazol-5-yl)phenoxy)-4-chloro-6-fluorobenzyl)-13-(4-chlorobenzyl)-10-(methoxymethyl)-7,12-dimethyl-3-(2,2,2-trifluoroethyl)-1,6,9,12-tetraazabicyclo[11.3.1]heptadecane-2,5,8,11-tetraone]	1.18	104.7
COC[C@@H]1NC(=O)[C@H](C)N(Cc2ccc(Cl)cc2Oc2ccc(-c3cnc(CN4CCCC4)n3C)cc2)C(=O)C[C@@H]([C@H]2COc3c(OC)cccc32)C(=O)N(C)C[C@@H](Cc2ccc(Cl)cc2)N(C)C1=O.Cl [Compound 110, (2S, 5S, 8R, 12S)-1-(4-chloro-2-(4-(1-methyl-2-(pyrrolidin-1-ylmethyl)-1H-imidazol-5-yl)phenoxy)benzyl)-8-(4-chlorobenzyl)-12-((R)-7-methoxy-2,3-dihydrobenzofuran-3-yl)-5-(methoxymethyl)-2,7,10-trimethyl-1,4,7,10-tetraazacyclotetradecane-3,6,11,14-tetraone]	10.2	102.2

Stronger by IC50, values ahead:

IC50 [nM]	Max % inhibition [%]	Compound
0.624	106.6	C[C@H]1C(=O)N[C@@H](CO)C(=O)N[C@@]2(Cc3ccc(Cl)cc3)CCCN(C2)C(=O)[C@H](Cc2cccc(C(F)(F)F)c2)CC(=O)N1Cc1c(F)cc(Cl)cc1Oc1ccc(-c2cnc(CN(C)C)n2C)cc1 [Compound 80, (3R, 7S, 10S, 13R)-6-(4-chloro-2-(4-(2-((dimethylamino)methyl)-1-methyl-1H-imidazol-5-yl)phenoxy)-6-fluorobenzyl)-13-(4-chlorobenzyl)-10-(hydroxymethyl)-7-methyl-3-(3-(trifluoromethyl)benzyl)-1,6,9,12-tetraazabicyclo[11.3.1]heptadecane-2,5,8,11-tetraone]
0.623	109.3	COC[C@@H]1NC(=O)[C@H](C)N(Cc2ccc(Cl)cc2Oc2ccc(-c3cnc(CN4CCC(O)CC4)n3C)cc2)C(=O)C[C@@H](Cc2ccccc2)C(=O)N2CCC[C@@](Cc3ccc(Cl)cc3)(C2)NC1=O.Cl [Compound 61]
0.277	115.7	COC[C@@H]1NC(=O)[C@H](C)N(Cc2ccc(Cl)cc2Oc2ccc(-c3cnc(CN(C)C)n3C)nc2)C(=O)C[C@@H](Cc2cccc(C)n2)C(=O)N2CCC[C@@](Cc3ccc(Cl)cc3)(C2)N(C)C1=O [Compound 24, (3R, 7S, 10S, 13R)-6-(4-chloro-2-((6-(2-((dimethylamino)methyl)-1-methyl-1H-imidazol-5-yl)pyridin-3-yl)oxy)benzyl)-13-(4-chlorobenzyl)-10-(methoxymethyl)-7,12-dimethyl-3-((6-methylpyridin-2-yl)methyl)-1,6,9,12-tetraazabicyclo[11.3.1]heptadecane-2,5,8,11-tetraone]
0.7	107.4	C[C@H]1C(=O)N[C@@H](CO)C(=O)N(C)[C@@]2(Cc3ccc(Cl)cc3)CCCN(C2)C(=O)[C@H](Cc2ccccc2)CC(=O)N1Cc1ccc(Cl)cc1Oc1ccc(-c2cnc(CN(C)C)n2C)cc1 [Compound 53, (3R, 7S, 10S, 13R)-3-benzyl-6-(4-chloro-2-(4-(2-((dimethylamino)methyl)-1-methyl-1H-imidazol-5-yl)phenoxy)benzyl)-13-(4-chlorobenzyl)-10-(hydroxymethyl)-7,12-dimethyl-1,6,9,12-tetraazabicyclo[11.3.1]heptadecane-2,5,8,11-tetraone]
0.715	106.4	COC[C@@H]1NC(=O)[C@H](C)N(Cc2ccc(Cl)cc2Oc2ccc(-c3cnc(CN(C)C)n3C)cc2)C(=O)C[C@@H](Cc2cccc(C)n2)C(=O)N2CCC[C@@](Cc3ccc(Cl)cc3)(C2)N(C)C1=O [Compound 38, (3R, 7S, 10S, 13R)-6-(4-chloro-2-(4-(2-((dimethylamino)methyl)-1-methyl-1H-imidazol-5-yl)phenoxy)benzyl)-13-(4-chlorobenzyl)-10-(methoxymethyl)-7,12-dimethyl-3-((6-methylpyridin-2-yl)methyl)-1,6,9,12-tetraazabicyclo[11.3.1]heptadecane-2,5,8,11-tetraone]
0.621	109.2	COC[C@@H]1NC(=O)[C@H](C)N(Cc2ccc(Cl)cc2Oc2ccc(-c3cnc(CN(C)C)n3C)cc2)C(=O)C[C@@H](Cc2ccccc2)C(=O)N2CCC[C@@](Cc3ccc(Cl)cc3)(C2)N(C)C1=O [Compound 65, (3R, 7S, 10S, 13R)-3-benzyl-6-(4-chloro-2-(4-(2-((dimethylamino)methyl)-1-methyl-1H-imidazol-5-yl)phenoxy)benzyl)-13-(4-chlorobenzyl)-10-(methoxymethyl)-7,12-dimethyl-1,6,9,12-tetraazabicyclo[11.3.]heptadecane-2,5,8,11-tetraone]
0.632	102.7	COC[C@@H]1NC(=O)[C@H](C)N(Cc2c(F)cc(Cl)cc2Oc2ccc(-c3cnc(CN4CCCC4)n3C)cc2)C(=O)C[C@@H](Cc2cccc(C)n2)C(=O)N2CCC[C@@](Cc3ccc(Cl)cc3)(C2)N(C)C1=O [Compound 14]
